Measurements published in US20250171448A1, “SOLID STATE FORMS OF GUSACITINIB” (TEVA PHARMACEUTICALS INTERNATIONAL GMBH, priority 2022, published 2025).

Experiments:
Type in all cases: physicochemical
[1] = Storage stability at different relative humidity (XRPD after 7 days); conditions: ambient temperature; for XRPD analysis results 60% (7 days): polymorphic conversion: 60% relative humidity
Method: Samples of Gusacitinib Forms: GS2, GS3, GS4 and Gusacitinib HCl salt Forms GHC11, GHC12, GHC18 were subjected to conditions of different relative humidity at ambient temperature. XRPD analysis was performed on the samples after 7 days.
A sample of Form GHC13 of Gusacitinib HCl salt was subjected to 60% relative humidity for 7 days.

[2] = Stability under tested stress conditions (grinding, pressure of 2 tons, humidity, temperature), summary statements; conditions: strong grinding; for stability under all tested stress conditions: high temperature up to 100° C.
[3] = Grinding experiments (strong grinding and solvent drop grinding, XRPD)
Method: Samples of Gusacitinib Forms: GS2, GS3, GS4 and Gusacitinib HCl salt Forms: GHC11, GHC12, GHC13, GHC18 were subjected to strong grinding, and to solvent drop grinding in isopropanol, ethanol and water. Grinding was carried out on the sample alone, or in the presence of the solvent. In these experiments, about 20 mg of the sample is placed in a mortar and ground with a pestle for 2 minutes. The solvent, when used, was added to the crystalline material before grinding, in a volume of 10 microlitres. XRPD analysis performed on the sample after the grinding experiment, confirmed no conversion of the starting material (Table 2): […]

[4] = Thermal stability (heating up to 100° C. for 30 minutes, XRPD)
Method: Samples of Gusacitinib Forms: GS2, GS3, GS4 and Gusacitinib HCl salt Forms GHC11, GHC12 and GHC18 were subjected to heating up to 100° C. for 30 minutes. XRPD analysis of the samples confirmed there to be no change in the starting material (Table 3): […]

N#CCC1CCN(c2nc(Nc3ccc(N4CCC(O)CC4)cc3)c3c(=O)[nH]ncc3n2)CC1 [Form GHC11]
XRPD analysis results 60% (7 days): polymorphic conversion ([1]; listed as GHCl1): No | stability under all tested stress conditions ([2]; high humidity up to 100% RH for 7 days): stable

N#CCC1CCN(c2nc(Nc3ccc(N4CCC(O)CC4)cc3)c3c(=O)[nH]ncc3n2)CC1 [Form GHC12]
XRPD analysis results 60% (7 days): polymorphic conversion ([1]; listed as GHCl2): No

N#CCC1CCN(c2nc(Nc3ccc(N4CCC(O)CC4)cc3)c3c(=O)[nH]ncc3n2)CC1 [Form GHC13]
XRPD analysis results 60% (7 days): polymorphic conversion [1]: no polymorphic conversion | stability under tested stress conditions ([2]; high humidity up to 60% RH for 7 days): stable

N#CCC1CCN(c2nc(Nc3ccc(N4CCC(O)CC4)cc3)c3c(=O)[nH]ncc3n2)CC1 [Form GHC18]
XRPD analysis results 60% (7 days): polymorphic conversion ([1]; listed as GHCl8): No

N#CCC1CCN(c2nc(Nc3ccc(N4CCC(O)CC4)cc3)c3c(=O)[nH]ncc3n2)CC1 [Form GS2, 2-[1-[4-[4-(4-hydroxypiperidin-1-yl)anilino]-5-oxo-6H-pyrimido[4,5-d]pyridazin-2-yl]piperidin-4-yl]acetonitrile]
XRPD analysis results, Solvent-drop grinding (ethanol) ([3]; about 20 mg ground 2 minutes, 10 microlitres ethanol): No polymorphic | XRPD analysis results, Solvent-drop grinding (isopropyl alcohol) ([3]; about 20 mg ground 2 minutes, 10 microlitres isopropyl alcohol): No polymorphic | XRPD analysis results, Solvent-drop grinding (water) ([3]; about 20 mg ground 2 minutes, 10 microlitres water): No polymorphic | XRPD analysis results, Strong grinding ([3]; about 20 mg ground with mortar and pestle for 2 minutes, no solvent): No polymorphic | XRPD analysis results 60% (7 days): polymorphic conversion ([1]; listed as GS2): No | Result, Heating 100° C., 30 minutes [4]: Stable

N#CCC1CCN(c2nc(Nc3ccc(N4CCC(O)CC4)cc3)c3c(=O)[nH]ncc3n2)CC1 [Form GS3, 2-[1-[4-[4-(4-hydroxypiperidin-1-yl)anilino]-5-oxo-6H-pyrimido[4,5-d]pyridazin-2-yl]piperidin-4-yl]acetonitrile]
XRPD analysis results 60% (7 days): polymorphic conversion ([1]; listed as GS3): No

N#CCC1CCN(c2nc(Nc3ccc(N4CCC(O)CC4)cc3)c3c(=O)[nH]ncc3n2)CC1 [Form GS4, 2-[1-[4-[4-(4-hydroxypiperidin-1-yl)anilino]-5-oxo-6H-pyrimido[4,5-d]pyridazin-2-yl]piperidin-4-yl]acetonitrile]
XRPD analysis results 60% (7 days): polymorphic conversion ([1]; listed as GS4): No | XRPD analysis results 80% (7 days): polymorphic conversion ([1]; 80% relative humidity): No | XRPD analysis results 100% (7 days): polymorphic conversion ([1]; 100% relative humidity): No | stability under all tested stress conditions ([2]; high humidity up to 80% RH for 7 days): stable
